This is an account of results in PMC12066977, “Alkyl Tail Variation on Chalcone‐Based Quaternary Pyridinium Salts as Rule‐of‐Thumb for Antimicrobial Activity” (Archiv Der Pharmazie, 2025).

One data set relates to C. albicans biofilm. As to the kind of experiment: Inhibition of biofilm formation (crystal violet staining). Format: cell-based, Candida albicans. Conditions: 3.125 µM; 24 h, CV staining. On the procedure:
The ability of some selected compounds to inhibit biofilm formation was assessed by established protocols with minor modifications. In short, exponential cultures of S. aureus, E. coli, and C. albicans grown in Tryptic Soy broth (TSB, Sigma‐Aldrich, St. Louis, MO, USA) were adjusted to a final density of 10^5 CFU/mL. Aliquots of 100 µL of the microbial cultures were transferred to a 96‐well flat‐bottom polystyrene microplate, and then incubated at 37°C for 90 min to promote bacterial adhesion. Thereafter, wells were slowly rinsed with PBS to remove nonattached cells, and 100 µL of TSB supplemented with 1% glucose containing the twofold serial dilutions of the compounds was added. After incubation at 37°C for 24 h, the free‐floating cells were removed, and the biofilms were carefully washed with PBS. The biomass was quantified by a standardized crystal violet (CV) staining. Briefly, 100 µL of CV solution (0.1% in water) was added to each well containing a completely air‐dried biofilm, and incubated for 30 min at 37°C. […] Finally, the colored supernatants were transferred to a new microplate, and the OD550nm was measured. The percentage inhibition of biofilm formation in the different experimental conditions was calculated relative to the biofilm mass formed in the absence of compounds (positive control).

A short description of data set [1]: Cell viability and proliferation assay (WST8/CCK-8). Conditions: African green monkey, Vero cells (ATCC CCL-81), 48 h treatment, CCK-8; read-out: CC50 [95% CI] Vero cells. Type of data set: cell-based. The method, then:
Vero cell line (ATCC CCL‐81) was selected as a model system to investigate the overall effect of chalcones on non‐malignant mammalian cells. […] For experiments, cells were seeded into 96‐well plates at 10^4 cells/well and incubated at 37°C for 24 h. Following washes with PBS, the cell monolayer was incubated with 100 µL of medium containing the twofold serial dilutions of the compounds. Both untreated cells and cells incubated with medium containing solvent dilutions were included in each experiment as controls. The cell viability was assessed by a WST8‐based assay according to the manufacturer's instructions (CCK‐8, Cell Counting Kit‐8, Dojindo Molecular Technologies, Rockville, MD, USA). After 48 h of incubation, culture medium was removed from each well, the monolayer was washed with PBS, and 100 µL of fresh medium containing 10 µL of CCK‐8 solution was added. Following a 2 h incubation at 37°C, the OD450nm was read, and data were expressed as the percentage of cell viability relative to the untreated controls. The CC50 was obtained on the corresponding dose–response curves generated as previously reported for IC50 values. Experiments were carried out in triplicate in three biological replicates.

The structures appear in SMILES notation.

As for `C#CCOc1ccc(C(=O)/C=C/c2ccc[n+](CCCCCCCCCCCCCC)c2)c(OCC#C)c1.[Br-]` [Compound 6, (E)‐3‐{3‐[2,4‐Bis(prop‐2‐yn‐1‐yloxy)phenyl]‐3‐oxoprop‐1‐en‐1‐yl}‐1‐tetradecylpyridin‐1‐ium bromide], in the data set with C. albicans biofilm, the “reduction in C. albicans biofilm formation” value came to 68.3%. The 50% cytotoxic concentration (CC50) at 48 h in data set [1] was found to be 6.16 µM.
